Test results reported in patent publication US9463256B2, “Pretargeting kit, method and agents used therein” (KONINKLIJKE PHILIPS N.V., priority 2010, dated 2016).

Experiments:
LS174T tumor model [1] = experiment: SPECT/CT imaging of tumor-bearing mice; type: in vivo
Procedure: (§1) LS174T tumor model. The human colon cancer cell line LS174T was obtained from the ATCC and maintained in Eagle's minimal essential medium (Sigma) supplemented with 10% heat inactivated fetal calf serum (Gibco), penicillin (100 U/mL), streptomycin (100 μg/mL) and 2 mM Glutamax. Nude female Balb/C mice (20-25 g body weight, Charles River Laboratories) were inoculated subcutaneously with 5×10^6 cells in 100 μL sterile PBS.
Tumor-bearing mice were injected with ^111In-tetrazine 28 (21 μg/75 μL per mouse, 20-50 MBq) 3 or 4 days after receiving 100 μg of a CC49-TCO construct without PEG10 spacer. Approximately 1 h later, the mice were anesthetized and positioned on an animal bed equipped with a nose cone for anesthesia and a sensor for respiratory monitoring. Single photon emission computed tomography (SPECT) was performed 2 h post tetrazine injection with a four-headed multi-pinhole small animal SPECT/CT imaging system (NanoSPECT, Bioscan Inc.). The SPECT acquisition (1 h total) was performed with 1.4 mm diameter pinholes and a 120-140 sec acquisition time per view (24 projections). The energy window for ^111In was set at 245 keV±15% and 171 keV±20%. Two-to-four days after the first scan, the mice were euthanized by anesthesia overdose and a second SPECT/CT scan was acquired overnight. Prior to each SPECT session a CT scan (2 sec per projection, 360 projections) was performed to obtain anatomical information on radioactivity distribution. After the acquisition, the data was reconstructed iteratively with the manufacturer's software (InVivoScope 1.39, patch 1). Regions of interest (ROIs) were drawn manually in triplicate for tumor, liver, kidney and thigh muscle. A phantom filled with a known amount of ^111In was used to calibrate the scanner for tissue radioactivity quantification. The image of three mice injected with CC49-TCO-O minor (CC49-20b), CC49-TCO-O major (CC49-20a) and CC49-TCO-C minor (CC49-14b) on a representative time scale are depicted in FIG. 13 A-C, respectively.
FIG. 13: (left) SPECT/CT projections of live mice 2 h after injection of ^111In-tetrazine 28 (21 μg/75 μL per mouse, ca. 40 MBq), 3-4 days after the administration of (A) CC49-TCO-O minor (CC49-20b), (B) CC49-TCO-O major (CC49-20a) or (C) CC49-TCO-C minor (CC49-14b) (100 μg/100 μL per mouse). (Right), post mortem SPECT/CT scans of the same mice 2-4 days after the first imaging session. White arrows indicate tumors.

LS174T tumor model [2] = experiment: Biodistribution experiments in tumor bearing mice pretargeted with CC49-TCO constructs; type: in vivo, Nude female Balb/C mice; conditions: 3 h after injection
Procedure: as §1
Dual isotope biodistribution experiments were performed by injecting tumor bearing mice (n=3) intravenously with ^125I-labeled CC49-TCO constructs with and without PEG10 spacer (100 μg/100 μL per mouse, ca. […] 0.8 MBq). Three hours after tetrazine administration, the animals were anesthetized with isoflurane and sacrificed by cervical dislocation. Blood was withdrawn by heart puncture and organs and tissues of interest were harvested, blotted dry and weighed. The radioactivity of the samples was measured in a γ-counter along with standards to determine the % ID/gram. The energy windows were set to 10-80 keV and 100-510 keV for ^125I and ^111In, respectively.

LS174T tumor model [3] = experiment: Tumor targeting of CC49-TCO (20b) constructs; type: in vivo, Nude female Balb/C mice; conditions: 3 h post-injection
Procedure: as §1
[…] The mice that received ^125I—CC49 were sacrificed 4 days post mAb injection. The mice that received ^125I—CC49-TCO 20b were injected with ^111In-DOTA-tetrazine 28 at 72 h post-mAb injection (25 eq. with respect to mAb, ca. 0.8 MBq) and were sacrificed 3 h after tetrazine injection. At the time of sacrifice, blood was collected by heart puncture and organs and tissues of interest were harvested, blotted dry, weighed and added with 1 mL PBS. The radioactivity in all samples was measured in a gamma-counter (Wizard 3, Perkin Elmer) with a dual-isotope protocol (energy windows set to 10-80 keV and 100-510 keV for ^125I and ^111In, respectively) along with standards to determine the percent injected dose per gram tissue (% ID/g).

[4] = 1 day pretargeting with CC49-14b
[5] = 1 day pretargeting with CC49-20a
[6] = 1 day pretargeting with CC49-20b
[7] = 3 days pretargeting with CC49-14b
[8] = 3 days pretargeting with CC49-20a
[9] = 3 days pretargeting with CC49-20b
[10] = mice pretreated with CC49-TCO(8.5) 72 h before
[11] = mice pretreated with CC49-TCO(12.7) 72 h before
[12] = mice pretreated with CC49-TCO(18.2) 72 h before

## O=C([O-])CN1CCN(CC(=O)[O-])CCN(CC(=O)NCCOCCOCCOCCOCCOCCOCCOCCOCCOCCOCCOCCNC(=O)CCCC(=O)Nc2ccc(-c3nnc(-c4ccccn4)nn3)nc2)CCN(CC(=O)[O-])CC1.[111In+3] [^111In-tetrazine 28]
LS174T tumor model [1]; 3 days after pre-treatment with CC49-TCO-O (both major and minor forms)
  ^111In-tetrazine uptake in tumor (SPECT/CT): high ^111In-tetrazine uptake in tumor
LS174T tumor model [1]; after the administration of CC49-TCO-C minor, 4 days delay between the two treatments
  radioactivity uptake (SPECT/CT): rather low radioactivity uptake
LS174T tumor model [1]; mice given CC49-TCO-C minor, 2 days after the early scan
  signal in the tumor at late scan (SPECT/CT): still present
LS174T tumor model [1]; mice pre-treated with CC49-TCO 0, 72-96 h after ^111In-tetrazine injection
  tumor radioactivity at late scan (SPECT/CT): still highly radioactive
LS174T tumor model [2]; [4]
  ^111In-tetrazine in Blood: 1.12 ± 0.09 % ID/gram
  ^111In-tetrazine in Bone: 0.27 ± 0.08 % ID/gram
  ^111In-tetrazine in Brain: 0.05 ± 0.01 % ID/gram
  ^111In-tetrazine in Heart: 0.46 ± 0.12 % ID/gram
  ^111In-tetrazine in Kidney: 3.12 ± 0.33 % ID/gram
  ^111In-tetrazine in Liver: 1.17 ± 0.35 % ID/gram
  ^111In-tetrazine in Lung: 0.79 ± 0.24 % ID/gram
  ^111In-tetrazine in Muscle: 0.22 ± 0.07 % ID/gram
  ^111In-tetrazine in Spleen: 0.53 ± 0.14 % ID/gram
  ^111In-tetrazine in Tumor: 2.59 ± 0.35 % ID/gram
LS174T tumor model [2]; [5]
  ^111In-tetrazine in Blood: 2.39 ± 1.77 % ID/gram
  ^111In-tetrazine in Bone: 0.33 ± 0.16 % ID/gram
  ^111In-tetrazine in Brain: 0.10 ± 0.06 % ID/gram
  ^111In-tetrazine in Heart: 0.84 ± 0.71 % ID/gram
  ^111In-tetrazine in Kidney: 2.84 ± 0.35 % ID/gram
  ^111In-tetrazine in Liver: 2.05 ± 1.03 % ID/gram
  ^111In-tetrazine in Lung: 1.13 ± 0.55 % ID/gram
  ^111In-tetrazine in Muscle: 0.33 ± 0.22 % ID/gram
  ^111In-tetrazine in Spleen: 0.83 ± 0.46 % ID/gram
  ^111In-tetrazine in Tumor: 2.40 ± 0.16 % ID/gram
LS174T tumor model [2]; [6]
  ^111In-tetrazine in Blood: 1.61 ± 0.45 % ID/gram
  ^111In-tetrazine in Bone: 0.40 ± 0.05 % ID/gram
  ^111In-tetrazine in Brain: 0.07 ± 0.01 % ID/gram
  ^111In-tetrazine in Heart: 0.50 ± 0.04 % ID/gram
  ^111In-tetrazine in Kidney: 3.39 ± 0.84 % ID/gram
  ^111In-tetrazine in Liver: 1.41 ± 0.45 % ID/gram
  ^111In-tetrazine in Lung: 0.97 ± 0.16 % ID/gram
  ^111In-tetrazine in Muscle: 0.24 ± 0.06 % ID/gram
  ^111In-tetrazine in Spleen: 0.65 ± 0.12 % ID/gram
  ^111In-tetrazine in Tumor: 3.42 ± 0.40 % ID/gram
LS174T tumor model [2]; [7]
  ^111In-tetrazine in Blood: 0.54 ± 0.11 % ID/gram
  ^111In-tetrazine in Bone: 0.20 ± 0.07 % ID/gram
  ^111In-tetrazine in Brain: 0.03 ± 0.01 % ID/gram
  ^111In-tetrazine in Heart: 0.24 ± 0.07 % ID/gram
  ^111In-tetrazine in Kidney: 2.82 ± 0.28 % ID/gram
  ^111In-tetrazine in Liver: 0.84 ± 0.21 % ID/gram
  ^111In-tetrazine in Lung: 0.50 ± 0.11 % ID/gram
  ^111In-tetrazine in Muscle: 0.16 ± 0.04 % ID/gram
  ^111In-tetrazine in Spleen: 0.34 ± 0.09 % ID/gram
  ^111In-tetrazine in Tumor: 2.76 ± 1.36 % ID/gram
LS174T tumor model [2]; [8]
  ^111In-tetrazine in Blood: 0.79 ± 0.39 % ID/gram
  ^111In-tetrazine in Bone: 0.15 ± 0.00 % ID/gram
  ^111In-tetrazine in Brain: 0.26 ± 0.11 % ID/gram
  ^111In-tetrazine in Heart: 0.30 ± 0.03 % ID/gram
  ^111In-tetrazine in Kidney: 3.16 ± 0.57 % ID/gram
  ^111In-tetrazine in Liver: 0.88 ± 0.13 % ID/gram
  ^111In-tetrazine in Lung: 0.58 ± 0.07 % ID/gram
  ^111In-tetrazine in Muscle: 0.21 ± 0.02 % ID/gram
  ^111In-tetrazine in Spleen: 0.43 ± 0.03 % ID/gram
  ^111In-tetrazine in Tumor: 3.11 ± 0.80 % ID/gram
LS174T tumor model [2]; [9]
  ^111In-tetrazine in Blood: 0.59 ± 0.10 % ID/gram
  ^111In-tetrazine in Bone: 0.16 ± 0.02 % ID/gram
  ^111In-tetrazine in Brain: 0.03 ± 0.01 % ID/gram
  ^111In-tetrazine in Heart: 0.22 ± 0.03 % ID/gram
  ^111In-tetrazine in Kidney: 2.59 ± 0.24 % ID/gram
  ^111In-tetrazine in Liver: 0.64 ± 0.06 % ID/gram
  ^111In-tetrazine in Lung: 0.46 ± 0.07 % ID/gram
  ^111In-tetrazine in Muscle: 0.18 ± 0.09 % ID/gram
  ^111In-tetrazine in Spleen: 0.35 ± 0.08 % ID/gram
  ^111In-tetrazine in Tumor: 2.56 ± 0.65 % ID/gram
LS174T tumor model [3]; [10]
  ^111In-tetrazine 28 in Blood: 0.45 ± 0.14 % ID/g
  ^111In-tetrazine 28 in Bone: 0.10 ± 0.03 % ID/g
  ^111In-tetrazine 28 in Brain: 0.02 ± 0.01 % ID/g
  ^111In-tetrazine 28 in Heart: 0.16 ± 0.03 % ID/g
  ^111In-tetrazine 28 in Kidney: 1.64 ± 0.28 % ID/g
  ^111In-tetrazine 28 in Liver: 0.44 ± 0.12 % ID/g
  ^111In-tetrazine 28 in Lung: 0.42 ± 0.06 % ID/g
  ^111In-tetrazine 28 in Muscle: 0.11 ± 0.05 % ID/g
  ^111In-tetrazine 28 in Spleen: 0.25 ± 0.05 % ID/g
  ^111In-tetrazine 28 in Tumor: 3.72 ± 1.45 % ID/g
LS174T tumor model [3]; [11]
  ^111In-tetrazine 28 in Blood: 0.37 ± 0.28 % ID/g
  ^111In-tetrazine 28 in Bone: 0.08 ± 0.02 % ID/g
  ^111In-tetrazine 28 in Brain: 0.01 ± 0.01 % ID/g
  ^111In-tetrazine 28 in Heart: 0.13 ± 0.05 % ID/g
  ^111In-tetrazine 28 in Kidney: 1.25 ± 0.24 % ID/g
  ^111In-tetrazine 28 in Liver: 0.29 ± 0.12 % ID/g
  ^111In-tetrazine 28 in Lung: 0.34 ± 0.10 % ID/g
  ^111In-tetrazine 28 in Muscle: 0.05 ± 0.00 % ID/g
  ^111In-tetrazine 28 in Spleen: 0.20 ± 0.06 % ID/g
  ^111In-tetrazine 28 in Tumor: 3.36 ± 1.69 % ID/g
LS174T tumor model [3]; [12]
  ^111In-tetrazine 28 in Blood: 0.12 ± 0.03 % ID/g
  ^111In-tetrazine 28 in Bone: 0.10 ± 0.02 % ID/g
  ^111In-tetrazine 28 in Brain: 0.04 ± 0.05 % ID/g
  ^111In-tetrazine 28 in Heart: 0.09 ± 0.03 % ID/g
  ^111In-tetrazine 28 in Kidney: 2.15 ± 0.17 % ID/g
  ^111In-tetrazine 28 in Liver: 0.26 ± 0.05 % ID/g
  ^111In-tetrazine 28 in Lung: 0.29 ± 0.01 % ID/g
  ^111In-tetrazine 28 in Muscle: 0.29 ± 0.43 % ID/g
  ^111In-tetrazine 28 in Spleen: 0.20 ± 0.02 % ID/g
  ^111In-tetrazine 28 in Tumor: 1.21 ± 0.22 % ID/g
